Patent US9790209B2, “Kinase inhibitors” (Respivert Limited, priority 2012, dated 2017)
Where two headings read alike, the source gives them in different places.

Legend:
[1] = biological target: p38 MAPKα (Homo sapiens (Human), UniProt Q16539); test: p38 MAPKα enzyme inhibition (Method 2), Z-LYTE FRET; assay type: biochemical
Method: (§1) The enzyme inhibitory activities of compounds disclosed herein are determined by FRET using synthetic peptides labelled with both donor and acceptor fluorophores (Z-LYTE, Invitrogen Ltd., Paisley, UK).
The inhibitory activities of test compounds against the p38 MAPKα isoform (MAPK14: Invitrogen), are evaluated indirectly by determining the level of activation/phosphorylation of the down-stream molecule, MAPKAP-K2. The p38 MAPKα protein (80 ng/mL, 2.5 μL) is mixed with the test compound (2.5 μL of either 4 μg/mL, 0.4 μg/mL, 0.04 μg/mL or 0.004 μg/mL) for 2 hr at RT. […] The mixture is incubated for 1 hr at RT. Development reagent (protease, […]) is added for 1 hr prior to detection in a fluorescence microplate reader (Varioskan® Flash, ThermoFisher Scientific).
This method follows the same steps as Method 1 above, but utilises a higher concentration of the p38 MAPKα protein (2.5 μL of 200 ng/mL protein instead of 2.5 μL of 80 ng/mL protein) for mixing with the test compound.
(§2) In all cases, the site-specific protease cleaves non-phosphorylated peptide only and eliminates the FRET signal. Phosphorylation levels of each reaction are calculated using the ratio of coumarin emission (donor) over fluorescein emission (acceptor), for which high ratios indicate high phosphorylation and low ratios indicate low phosphorylation levels. The percentage inhibition of each reaction is calculated relative to non-inhibited control and the 50% inhibitory concentration (IC50 value) is then calculated from the concentration-response curve.

[2] = biological target: c-Src (Homo sapiens (Human), UniProt P12931); test: c-Src enzyme inhibition, Z-LYTE FRET; assay type: biochemical
Method: as §1
(§3) The inhibitory activities of compounds of the invention against c-Src and Syk enzymes (Invitrogen), are evaluated in a similar fashion to that described hereinabove. The relevant enzyme (3000 ng/mL or 2000 ng/mL respectively, 2.5 μL) is incubated with the test compound (either 4 μg/mL, 0.4 μg/mL, 0.04 μg/mL, or 0.004 μg/mL, 2.5 μL each) for 2 hr at RT. The FRET peptides (8 μM. 2.5 μL), and appropriate ATP solutions (2.5 μL, 800 μM for c-Src, and 60 μM ATP for Syk) are then added to the enzymes/compound mixtures and incubated for 1 hr. Development reagent (protease, 5 μL) is added for 1 hr prior to detection in a fluorescence microplate reader (Varioskan® Flash, ThermoFisher Scientific).
as §2

[3] = biological target: Syk (Homo sapiens (Human), UniProt P43405); test: Syk enzyme inhibition, Z-LYTE FRET; assay type: biochemical
Method: as §1, §3, §2

[4] = biological target: GSK3α (Homo sapiens (Human), UniProt P49840); test: GSK 3α enzyme inhibition (Method 2), Z-LYTE FRET; assay type: biochemical
Method: as §1
The inhibitory activities of compounds of the invention against the GSK 3α enzyme isoform (Invitrogen), are evaluated by determining the level of activation/phosphorylation of the target peptide. The GSK3-α protein (500 ng/mL, 2.5 μL) is mixed with the test compound (2.5 μL at either 4 μg/mL, 0.4 μg/mL, 0.04 μg/mL, or 0.004 μg/mL) for 2 hr at RT. The FRET peptide (8 μM, 2.5 μL), which is a phosphorylation target for GSK3α, and ATP (40 μM, 2.5 μL) are then added to the enzyme/compound mixture and the resulting mixture incubated for 1 hr. Development reagent (protease, 5 μL) is added for 1 hr prior to detection in a fluorescence microplate reader (Varioskan® Flash, ThermoFisher Scientific).
as §2
This method follows the same steps as Method 1 above, but utilises a shorter period of mixing of the test compound (105 minutes instead of 2 hours) with the GSK3-α protein.

[5] = system: d-U937 cells; test: LPS-induced TNFα/IL-8 release in d-U937 cells; assay type: cell-based; details: Homo sapiens, dU937, LPS-stimulated d-U937 cells
Method: U937 cells, a human monocytic cell line, are differentiated to macrophage-type cells by incubation with phorbol myristate acetate (PMA; 100 ng/mL) for 48 to 72 hr. Cells are pre-incubated with final concentrations of test compound for 2 hr and are then stimulated with 0.1 μg/mL of LPS (from E. Coli: 0111:B4, Sigma) for 4 hr. The supernatant is collected for determination of TNFα and IL-8 concentrations by sandwich ELISA (Duo-set, R&D systems). The inhibition of TNFα production is calculated as a percentage of that achieved by 10 μg/mL of BIRB796 at each concentration of test compound by comparison against vehicle control. The relative 50% effective concentration (REC50) is determined from the resultant concentration-response curve. The inhibition of IL-8 production is calculated at each concentration of test compound by comparison with vehicle control. The 50% inhibitory concentration (IC50) is determined from the resultant concentration-response curve.

[6] = system: PBMCs; test: LPS-induced TNFα/IL-8 release in PBMC cells; assay type: cell-based; details: Homo sapiens, LPS-stimulated PBMCs
Method: Peripheral blood mononuclear cells (PBMCs) from healthy subjects are separated from whole blood using a density gradient (Lymphoprep, Axis-Shield Healthcare). The PBMCs are seeded in 96 well plates and treated with compounds at the desired concentration for 2 hours before addition of 1 ng/mL LPS (Escherichia Coli 0111:B4 from Sigma Aldrich) for 24 hours under normal tissue culture conditions (37° C., 5% CO2). The supernatant is harvested for determination of IL-8 and TNFα concentrations by sandwich ELISA (Duo-set, R&D systems) and read on the fluorescence microplate reader (Varioskan® Flash, ThermoFisher Scientific). The concentration at 50% inhibition (IC50) of IL-8 and TNFα production is calculated from the dose response curve.

[7] = system: PBMCs; test: IL-2 and IFN gamma release in CD3/CD28 stimulated PBMC cells; assay type: cell-based; details: Homo sapiens
Method: PBMCs from healthy subjects are separated from whole blood using a density gradient (Lymphoprep, Axis-Shield Healthcare). Cells are added to a 96 well plate pre-coated with a mixture of CD3/CD38 monoclonal antibodies (0.3 μg/mL eBioscience and 3 μg/mL BD Pharmingen respectively). Compound at the desired concentration is then added to the wells and the plate left for 3 days under normal tissue culture conditions. Supernatants are harvested and IL-2 and IFN gamma release determined by Sandwich ELISA (Duo-set, R&D System). The IC50 is determined from the dose response curve.

[8] = system: HT29 cells; test: IL-1-induced IL-8 release in HT29 cells; assay type: cell-based; details: Homo sapiens, HT-29, IL-1β-stimulated HT29 cells, read-out: IC50 Values for Inhibition of Cytokine Release HT29 cells IL-8
Method: HT29 cells, a human colon adenocarcinoma cell line, are plated in a 96 well plate (24 hrs) and pre-treated with compounds at the desired concentration for 2 hours before addition of 5 ng/mL of IL-1β (Abcam) for 24 hours. Supernatants are harvested for IL-8 quantification by Sandwich ELISA (Duo-set, R&D System). The IC50 is determined from the dose response curve.

[9] = IL-8, read-out: IC50 Values for Inhibition of Cytokine Release dU937 cells IL-8
[10] = TNFα (method describes REC50 relative to BIRB796), read-out: IC50 Values for Inhibition of Cytokine Release dU937 cells TNFα
[11] = IL-8, read-out: IC50 Values for Inhibition of Cytokine Release PBMCs IL-8
[12] = IL-2, read-out: IC50 Values for Inhibition of Cytokine Release PBMCs IL-2
[13] = IFNγ, read-out: IC50 Values for Inhibition of Cytokine Release PBMCs IFNγ

p38 MAPKα, sequence (Q16539 whole entry): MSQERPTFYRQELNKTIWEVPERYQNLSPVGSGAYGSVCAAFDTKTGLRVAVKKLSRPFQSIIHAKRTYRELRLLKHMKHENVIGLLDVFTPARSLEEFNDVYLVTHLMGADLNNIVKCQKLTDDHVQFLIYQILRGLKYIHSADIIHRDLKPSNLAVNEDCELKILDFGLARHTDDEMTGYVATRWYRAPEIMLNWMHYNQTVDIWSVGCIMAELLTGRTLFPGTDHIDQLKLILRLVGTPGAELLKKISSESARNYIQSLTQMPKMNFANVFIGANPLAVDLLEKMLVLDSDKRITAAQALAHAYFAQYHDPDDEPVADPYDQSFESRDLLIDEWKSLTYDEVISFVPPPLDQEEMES
GSK3α, sequence (P49840 whole entry): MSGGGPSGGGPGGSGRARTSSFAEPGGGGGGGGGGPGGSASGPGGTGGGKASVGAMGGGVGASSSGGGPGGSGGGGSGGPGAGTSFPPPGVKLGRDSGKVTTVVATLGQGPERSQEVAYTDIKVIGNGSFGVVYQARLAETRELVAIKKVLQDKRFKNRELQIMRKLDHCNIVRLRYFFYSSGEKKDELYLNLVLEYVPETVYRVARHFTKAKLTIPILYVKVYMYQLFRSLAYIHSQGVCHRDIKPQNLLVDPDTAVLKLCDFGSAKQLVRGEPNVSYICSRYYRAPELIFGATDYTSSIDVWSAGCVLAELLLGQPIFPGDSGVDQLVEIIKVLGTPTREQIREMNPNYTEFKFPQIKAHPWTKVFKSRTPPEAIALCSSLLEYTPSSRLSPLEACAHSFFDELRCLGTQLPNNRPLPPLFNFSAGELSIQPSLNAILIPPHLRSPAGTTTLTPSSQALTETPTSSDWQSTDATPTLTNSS
c-Src, sequence (P12931 whole entry, looked up): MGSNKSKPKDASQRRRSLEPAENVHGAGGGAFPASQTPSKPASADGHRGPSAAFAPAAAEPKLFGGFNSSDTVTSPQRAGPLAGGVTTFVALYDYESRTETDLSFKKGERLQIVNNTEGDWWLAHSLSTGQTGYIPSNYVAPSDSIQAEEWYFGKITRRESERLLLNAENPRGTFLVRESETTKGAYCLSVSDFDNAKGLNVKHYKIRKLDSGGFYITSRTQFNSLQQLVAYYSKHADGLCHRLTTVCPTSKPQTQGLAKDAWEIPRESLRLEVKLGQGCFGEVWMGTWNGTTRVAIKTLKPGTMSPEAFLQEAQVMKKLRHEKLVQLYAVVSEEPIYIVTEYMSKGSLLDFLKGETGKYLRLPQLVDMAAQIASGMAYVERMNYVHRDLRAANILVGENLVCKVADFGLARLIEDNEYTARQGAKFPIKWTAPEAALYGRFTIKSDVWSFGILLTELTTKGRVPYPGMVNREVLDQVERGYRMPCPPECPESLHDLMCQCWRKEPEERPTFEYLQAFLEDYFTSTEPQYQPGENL

Structure (SMILES)	IC50 [1] [nM]	IC50 [2] [nM]	IC50 [3] [nM]	IC50 [4] [nM]	IC50 [5, 9] [nM]	IC50 [5, 10] [nM]	IC50 [6, 11] [nM]	IC50 ([6]; TNFα, assay (b), read-out: IC50 for inhibition of TNFα release in PBMCs) [nM]	IC50 [7, 12] [nM]	IC50 [8] [nM]	IC50 [7, 13] [nM]
C#CC(C)(C)c1cc(NC(=O)Nc2ccc(Oc3ccnc(Nc4ccccc4)n3)c3ccccc23)n(-c2ccc(C)cc2)n1 [Example 1, 1-(3-(2-Methylbut-3-yn-2-yl)-1-(p-tolyl)-1H-pyrazol-5-yl)-3-(4-((2-(phenylamino)pyrimidin-4-yl)oxy)naphthalen-1-yl)urea]	85	60	> 1000	> 10000	3.2	1.4	1.6	2.5	–	–	–
C#CC(C)(C)c1cc(NC(=O)Nc2ccc(Oc3ccnc(Nc4ccc5c(c4)NC(=O)C5)n3)c3ccccc23)n(-c2ccc(C)cc2)n1 [Example 3, 1-(3-(2-Methylbut-3-yn-2-yl)-1-(p-tolyl)-1H-pyrazol-5-yl)-3-(4-((2-((2-oxoindolin-6-yl)amino)pyrimidin-4-yl)oxy)naphthalen-1-yl)urea]	87	203	113	> 10000	4.4	2.8	2.1	–	0.7	6	–
C#CC(C)(C)c1cc(NC(=O)Nc2ccc(Oc3ccnc(Nc4cc(C(=O)NCCN5CCOCC5)cc(C(F)(F)F)c4)n3)c3ccccc23)n(-c2ccc(C)cc2)n1 [Example 12, 3-((4-((4-(3-(3-(2-Methylbut-3-yn-2-yl)-1-(p-tolyl)-1H-pyrazol-5-yl)ureido)naphthalen-1-yl)oxy)pyrimidin-2-yl)amino)-N-(2-morpholinoethyl)-5-(trifluoromethyl)benzamide]	214	74	275	2310	1.2	–	2.1	–	171	3.7	2.6
C#CC(C)(C)c1cc(NC(=O)Nc2ccc(Oc3ccnc(Nc4cc(OC(F)(F)F)cc(C(=O)NCCN5CCOCC5)c4)n3)c3ccccc23)n(-c2ccc(C)cc2)n1 [Example 14, 3-((4-((4-(3-(3-(2-Methylbut-3-yn-2-yl)-1-(p-tolyl)-1H-pyrazol-5-yl)ureido)naphthalen-1-yl)oxy)pyrimidin-2-yl)amino)-N-(2-morpholinoethyl)-5-(trifluoromethoxy)benzamide]	273	37	203	5440	1.8	–	1.4	–	170	3.6	2
C#Cc1cc(Nc2nccc(Oc3ccc(NC(=O)Nc4cc(C(C)(C)C#C)nn4-c4ccc(C)cc4)c4ccccc34)n2)cc(C(=O)NCCN2CCOCC2)c1 [Example 15, 3-Ethynyl-5-((4-((4-(3-(3-(2-methylbut-3-yn-2-yl)-1-(p-tolyl)-1H-pyrazol-5-yl)ureido)naphthalen-1-yl)oxy)pyrimidin-2-yl)amino)-N-(2-morpholinoethyl)benzamide]	67	16	40	3590	1.3	–	0.8	–	69.3	2.5	2.4
